59 compounds from US11414431B2, “Substituted pyrazolo[1,5-a]pyrimidines as TYK2 inhibitors” (Nimbus Lakshmi, Inc., priority 2018, dated 2022) can be followed below.

The assay relates to IL-12 induced STAT4 phosphorlyation mediated by TYK2/JAK2. Kind of assay: IL-12 Induced pSTAT4 in Human PBMC. In kind it is cell-based. The settings on record: 1.7 ng/mL IL-12 for 30 minutes. As to the method:
Human PBMC were isolated from buffy coat and are stored frozen for assays as needed. […] 15 μL of compound or DMSO was added to the well at the desired concentrations and incubated at 1 hr at 37° C. 15 μL of stimulus (final concentration of 1.7 ng/mL IL-12) was added for 30 minutes prior to pSTAT4 and total STAT4 analysis using cell lysates prepared and analyzed by MSD reagents as per manufacturer protocol. The final DMSO concentration of compound in the assay was 0.1%.
The IL-12 induced pSTAT4 assay evaluates the inhibition of IL-12 induced STAT4 phosphorlyation mediated by TYK2/JAK2 (heterpdimeric complex).

Each structure is given as a SMILES string.

For orientation: IC50 means the midpoint of a concentration-inhibition curve. The low end stands for greater potency in that assay, the high end for weaker potency in that assay. The compound `CNc1cc(Nc2cccn([C@H]3[C@@H]4COC[C@@H]43)c2=O)nc2c(C(=O)N[C@@H]3CC[C@H]3F)cnn12` [Compound I-208] showed an IC50 of under 0.1 µM.

As to `CNc1cc(Nc2cccn([C@@H]3CCCC[C@@H]3O)c2=O)nc2c(C(=O)NC3CC[C@@H]3F)cnn12` (some centres unmarked) [Compound I-209], the IC50 was under 0.1 µM.

In the case of `CNc1cc(Nc2cccn([C@@H]3CCCC[C@@H]3O)c2=O)nc2c(C(=O)N[C@@H]3CC[C@H]3F)cnn12` [Compound I-211], the IC50 is under 0.1 µM.

As to `CNc1cc(Nc2cccn([C@H]3CCCC[C@H]3O)c2=O)nc2c(C(=O)NC3CC[C@@H]3F)cnn12` (some centres unmarked) [Compound I-212], the IC50 fell in the range of 0.1 to 0.5 µM.

As to `CNc1cc(Nc2cccn([C@H]3CCCC[C@H]3O)c2=O)nc2c(C(=O)N[C@@H]3CC[C@H]3F)cnn12` [Compound I-214], the IC50 was under 0.1 µM.

Take `CNc1cc(Nc2cccn([C@@H]3CCOC[C@@H]3OC)c2=O)nc2c(C(=O)N[C@@H]3CC[C@H]3F)cnn12` [Compound I-217]: the IC50 was under 0.1 µM.

With `CNc1cc(Nc2cccn([C@H]3CC[C@H](OC)CC3)c2=O)nc2c(C(=O)NC3CC[C@@H]3F)cnn12` (some centres unmarked) [Compound I-224], the IC50 is under 0.1 µM.

`CNc1cc(Nc2cccn([C@H]3CC[C@H](OC)CC3)c2=O)nc2c(C(=O)N[C@H]3CC[C@@H]3F)cnn12` [Compound I-225] came in with an IC50 of under 0.1 µM.

As for `CNc1cc(Nc2cccn([C@@H]3CCC[C@@H](OC)C3)c2=O)nc2c(C(=O)NC3CC[C@@H]3F)cnn12` (some centres unmarked) [Compound I-227], the IC50 was under 0.1 µM.

`CNc1cc(Nc2cccn([C@@H]3CCC[C@@H](OC)C3)c2=O)nc2c(C(=O)N[C@H]3CC[C@@H]3F)cnn12` [Compound I-228]: the IC50 is under 0.1 µM.

The compound `CNc1cc(Nc2cccn([C@H]3CCC[C@H](OC)C3)c2=O)nc2c(C(=O)NC3CC[C@@H]3F)cnn12` (some centres unmarked) [Compound I-230] yielded an IC50 of under 0.1 µM.

`CNc1cc(Nc2cccn([C@H]3CCC[C@H](OC)C3)c2=O)nc2c(C(=O)N[C@H]3CC[C@@H]3F)cnn12` [Compound I-231] registered an IC50 of under 0.1 µM.

In turn, `CNc1cc(Nc2cccn([C@@H]3CCOC[C@@H]3OC)c2=O)nc2c(C(=O)N[C@@H]3CC[C@@H]3F)cnn12` [Compound I-235] came in with an IC50 of under 0.1 µM.

`CNc1cc(Nc2cccn(C3CCN(CCF)CC3)c2=O)nc2c(C(=O)NC3CC[C@@H]3F)cnn12` (some centres unmarked) [Compound I-236] gave an IC50 of under 0.1 µM.

In turn, `CNc1cc(Nc2cccn(C3CCN(CCF)CC3)c2=O)nc2c(C(=O)N[C@H]3CC[C@@H]3F)cnn12` [Compound I-237] showed an IC50 of under 0.1 µM.

On to `CNc1cc(Nc2cccn([C@H]3CC[C@@H]3OC)c2=O)nc2c(C(=O)NC3CC[C@H]3O)cnn12` (some centres unmarked) [Compound I-239], for which the IC50 was under 0.1 µM.

Compound `CNc1cc(Nc2cccn([C@H]3CC[C@@H]3OC)c2=O)nc2c(C(=O)N[C@H]3CC[C@H]3O)cnn12` [Compound I-240] gave an IC50 of under 0.1 µM.

The compound `CNc1cc(Nc2cccn([C@@H]3CC[C@H]3OC)c2=O)nc2c(C(=O)N[C@H]3CC[C@H]3O)cnn12` [Compound I-243] gave an IC50 of under 0.1 µM.

`CNc1cc(Nc2cccn([C@H]3C[C@@H](OC)C3)c2=O)nc2c(C(=O)N[C@H]3CC[C@@H]3OC)cnn12` [Compound I-253]: the IC50 was under 0.1 µM.

In turn, `CNc1cc(Nc2cccn([C@H]3C[C@H](OC)C3)c2=O)nc2c(C(=O)N[C@H]3CC[C@@H]3OC)cnn12` [Compound I-255] had an IC50 of under 0.1 µM.

For the compound `CNc1cc(Nc2cccn([C@H]3CCC[C@@H](C#N)C3)c2=O)nc2c(C(=O)N[C@@H]3CC[C@H]3OC)cnn12` [Compound I-258], the IC50 is under 0.1 µM.

For the compound `CNc1cc(Nc2cccn([C@@H]3CCC[C@H](C#N)C3)c2=O)nc2c(C(=O)N[C@@H]3CC[C@H]3OC)cnn12` [Compound I-260], the IC50 was under 0.1 µM.

In turn, `CNc1cc(Nc2cccn([C@H]3[C@@H]4COC[C@@H]43)c2=O)nc2c(C(=O)N[C@@H]3CC[C@H]3OC)cnn12` [Compound I-262] came in with an IC50 of under 0.1 µM.

The compound `CNc1cc(Nc2cccn(-c3ccccn3)c2=O)nc2c(C(=O)N[C@@H]3CC[C@H]3OC)cnn12` [Compound I-264] displayed an IC50 of under 0.1 µM.

In turn, `CNc1cc(Nc2cccn(-c3ncccc3F)c2=O)nc2c(C(=O)NC3CC[C@H]3OC)cnn12` (some centres unmarked) [Compound I-265] returned an IC50 of under 0.1 µM.

The compound `CNc1cc(Nc2cccn(-c3ncccc3F)c2=O)nc2c(C(=O)N[C@@H]3CC[C@H]3OC)cnn12` [Compound I-266] gave an IC50 of under 0.1 µM.

In turn, `CNc1cc(Nc2cccn([C@@H]3C[C@H]3F)c2=O)nc2c(C(=O)NC3CCC3(F)F)cnn12` (some centres unmarked) [Compound I-274] came in with an IC50 of under 0.1 µM.

Compound `CNc1cc(Nc2cccn([C@@H]3C[C@H]3F)c2=O)nc2c(C(=O)N[C@@H]3CCC3(F)F)cnn12` [Compound I-276] registered an IC50 of under 0.1 µM.

As for `CNc1cc(Nc2cccn([C@H]3C[C@@H]3F)c2=O)nc2c(C(=O)NC3CCC3(F)F)cnn12` (some centres unmarked) [Compound I-277], the IC50 was under 0.1 µM.

`CNc1cc(Nc2cccn([C@H]3C[C@@H]3F)c2=O)nc2c(C(=O)N[C@@H]3CCC3(F)F)cnn12` [Compound I-279] returned an IC50 of under 0.1 µM.

Regarding `CNc1cc(Nc2cccn(C3COC3)c2=O)nc2c(C(=O)NC3CCC3(F)F)cnn12` (centres unmarked) [Compound I-280], the IC50 was under 0.1 µM.

For the compound `CNc1cc(Nc2cccn(C3COC3)c2=O)nc2c(C(=O)N[C@@H]3CCC3(F)F)cnn12` [Compound I-282], the IC50 was under 0.1 µM.

For `CNc1cc(Nc2cccn([C@H]3C[C@H](F)C3)c2=O)nc2c(C(=O)NC3CCC3(F)F)cnn12` (some centres unmarked) [Compound I-283], the IC50 is under 0.1 µM.

`CNc1cc(Nc2cccn([C@H]3C[C@H](F)C3)c2=O)nc2c(C(=O)N[C@@H]3CCC3(F)F)cnn12` [Compound I-285] yielded an IC50 of under 0.1 µM.

In turn, `CNc1cc(Nc2cccn([C@H]3CC[C@H]3O)c2=O)nc2c(C(=O)NC3CCC3(F)F)cnn12` (some centres unmarked) [Compound I-286] registered an IC50 of under 0.1 µM.

`CNc1cc(Nc2cccn([C@H]3CC[C@H]3O)c2=O)nc2c(C(=O)N[C@H]3CCC3(F)F)cnn12` [Compound I-287] yielded a concentration for half-maximal inhibition (IC50) of under 0.1 µM.

Turning to `CNc1cc(Nc2cccn([C@@H]3CC[C@@H]3O)c2=O)nc2c(C(=O)N[C@H]3CCC3(F)F)cnn12` [Compound I-290], the IC50 is under 0.1 µM.

In turn, `CNc1cc(Nc2cccn([C@H]3C[C@H](OC)C3)c2=O)nc2c(C(=O)NC3CCC3(F)F)cnn12` (some centres unmarked) [Compound I-292] came in with an IC50 of under 0.1 µM.

`CNc1cc(Nc2cccn([C@H]3C[C@H](OC)C3)c2=O)nc2c(C(=O)N[C@H]3CCC3(F)F)cnn12` [Compound I-293]: the IC50 is under 0.1 µM.

For the compound `CNc1cc(Nc2cccn([C@H]3C[C@@H](OC)C3)c2=O)nc2c(C(=O)NC3CCC3(F)F)cnn12` (some centres unmarked) [Compound I-295], the IC50 is under 0.1 µM.

`CNc1cc(Nc2cccn([C@H]3C[C@@H](OC)C3)c2=O)nc2c(C(=O)N[C@H]3CCC3(F)F)cnn12` [Compound I-296] had an IC50 of under 0.1 µM.

Turning to `CNc1cc(Nc2cccn([C@@H]3CCC[C@@H]3O)c2=O)nc2c(C(=O)NC3CCC3(F)F)cnn12` (some centres unmarked) [Compound I-303], the IC50 was under 0.1 µM.

For `CNc1cc(Nc2cccn([C@@H]3CCC[C@@H]3O)c2=O)nc2c(C(=O)N[C@@H]3CCC3(F)F)cnn12` [Compound I-305], the IC50 is under 0.1 µM.

For `CNc1cc(Nc2cccn([C@H]3[C@@H]4COC[C@@H]43)c2=O)nc2c(C(=O)NC3CCC3(F)F)cnn12` (some centres unmarked) [Compound I-306], the IC50 is under 0.1 µM.

In turn, `CNc1cc(Nc2cccn(C3CCOCC3)c2=O)nc2c(C(=O)NC3CCC3(F)F)cnn12` (centres unmarked) [Compound I-309] returned an IC50 of under 0.1 µM.

Compound `CNc1cc(Nc2cccn(C3CCOCC3)c2=O)nc2c(C(=O)N[C@@H]3CCC3(F)F)cnn12` [Compound I-311] gave an IC50 of under 0.1 µM.

The compound `CNc1cc(Nc2cccn([C@H]3CCCOC3)c2=O)nc2c(C(=O)NC3CCC3(F)F)cnn12` (some centres unmarked) [Compound I-312] showed an IC50 of under 0.1 µM.

In turn, `CNc1cc(Nc2cccn([C@H]3CCCOC3)c2=O)nc2c(C(=O)N[C@@H]3CCC3(F)F)cnn12` [Compound I-314] yielded an IC50 of under 0.1 µM.

In turn, `CNc1cc(Nc2cccn([C@@H]3CCCOC3)c2=O)nc2c(C(=O)NC3CCC3(F)F)cnn12` (some centres unmarked) [Compound I-315] displayed an IC50 of under 0.1 µM.

For the compound `CNc1cc(Nc2cccn([C@@H]3CCCOC3)c2=O)nc2c(C(=O)N[C@@H]3CCC3(F)F)cnn12` [Compound I-317], the IC50 is under 0.1 µM.

`CNc1cc(Nc2cccn(-c3ccccn3)c2=O)nc2c(C(=O)NC3CCC3(F)F)cnn12` (centres unmarked) [Compound I-318] showed an IC50 of under 0.1 µM.

Take `CNc1cc(Nc2cccn(-c3ccccn3)c2=O)nc2c(C(=O)N[C@@H]3CCC3(F)F)cnn12` [Compound I-320]: the IC50 is under 0.1 µM.

The compound `CNc1cc(Nc2cccn(-c3ccc(C)nc3)c2=O)nc2c(C(=O)NC3CCC3(F)F)cnn12` (centres unmarked) [Compound I-324] had an IC50 of under 0.1 µM.

In turn, `CNc1cc(Nc2cccn(-c3ccc(C)nc3)c2=O)nc2c(C(=O)N[C@H]3CCC3(F)F)cnn12` [Compound I-325] came in with an IC50 of under 0.1 µM.

In turn, `CNc1cc(Nc2cccn([C@@H]3CCC[C@H](C#N)C3)c2=O)nc2c(C(=O)NC3CCC3(F)F)cnn12` (some centres unmarked) [Compound I-327] displayed an IC50 of under 0.1 µM.

The compound `CNc1cc(Nc2cccn([C@@H]3CCC[C@H](C#N)C3)c2=O)nc2c(C(=O)N[C@H]3CCC3(F)F)cnn12` [Compound I-328] showed an IC50 of under 0.1 µM.

`CNc1cc(Nc2cccn([C@H]3CCC[C@@H](C#N)C3)c2=O)nc2c(C(=O)NC3CCC3(F)F)cnn12` (some centres unmarked) [Compound I-330] came in with a half-maximal inhibitory concentration (IC50) of under 0.1 µM.

The compound `CNc1cc(Nc2cccn([C@H]3CCC[C@@H](C#N)C3)c2=O)nc2c(C(=O)N[C@H]3CCC3(F)F)cnn12` [Compound I-331] gave an IC50 of under 0.1 µM.

Consider `CNc1cc(Nc2cccn([C@@H]3CCOC[C@@H]3OC)c2=O)nc2c(C(=O)NC3CCC3(F)F)cnn12` (some centres unmarked) [Compound I-336], for which the IC50 is under 0.1 µM.
